The results in this text go back to PMC11310079, “Commensal production of a broad-spectrum and short-lived antimicrobial peptide polyene eliminates nasal Staphylococcus aureus” (Nature Microbiology, 2023).

The subject of one series is S. aureus USA300 JE2. Briefly: Determination of the IC (miniaturized agar diffusion assay). As to conditions: agar diffusion on inoculated TSA, 24 h 37 °C dark; IC from inhibited agar volume. In kind it is cell-based, Staphylococcus aureus. The method, then:
(§1) Instead, a miniaturized assay was developed. Molten TSA, kept below 42 °C, was inoculated with different test strains at an OD600 of 0.00125. Then, 17.5 ml was poured into Petri dishes, resulting in agar layers of ~3.16 mm thickness. After solidification, a cork borer was used to punch wells of 4-mm diameter into the agar. Thirty-five microlitres of purified epifadin in DMSO–PA (2.4 µg, 1.2 µg, 0.6 µg, 0.3 µg, 0.15 µg and 0.075 µg) was pipetted into the wells, and agar plates were incubated for 24 h at 37 °C in the dark. Diameters of the zones of inhibition were measured and the volume containing the inhibitory epifadin concentration was calculated, using the following formula for cylinder volume: Vc=πxr^2xhVc=cylindervolumeVi=πrz2xha−(πrw2xha)Vi=inhibitedvolumerz2=radius(diameter/2)zoneofinhibitionrw2=radius(diameter/2)ofwellha=heightofagar
(§2) The volume of agar showing inhibition of the test strain was then correlated with the included amount of epifadin, and the epifadin concentration necessary to inhibit test strain growth in a 1 ml volume was calculated to yield IC values. If, for example, 2.4 µg of epifadin lead to an inhibited volume of 480 µl, to inhibit a volume of 1 ml, 5 µg epifadin is needed, which corresponds to an IC of 5 μg ml^−1. These calculations were conducted for the lowest amount of epifadin that led to a zone of inhibition to minimize the necessary epifadin amounts and the calculation error due to the gradient within the inhibition zone. As a control, the same assay was used to determine the IC for vancomycin, daptomycin and lugdunin under these conditions.
(In general: Agar diffusion results depend on both activity and mobility in agar.)

The test system of another series is S. aureus USA300LAC. Described as above. The format is cell-based, Staphylococcus aureus. As to conditions: agar diffusion on inoculated TSA, 35 µl in 4-mm wells, 24 h 37 °C dark; IC from inhibited agar volume at lowest active amount. The method, then: as §1, §2
The next series relates to S. aureus USA300 LAC. The series is described as follows: Stability analysis of epifadin (bioactivity by agar diffusion after incubation). The format is physicochemical, Staphylococcus aureus. To be noted: 37 °C, pH 7, light, r4-r10 = 0-6 h. The method, then:
Fig. 2 High instability of epifadin under in vivo-like conditions. S. epidermidis IVK83 culture supernatants containing epifadin were precipitated with HCl, freeze-dried and extracted with DMSO. This extract was diluted in TSB, incubated for the indicated time periods with constant shaking under the respective conditions and subsequently tested for activity towards S. aureus USA300 LAC. a, Stability of epifadin compared with other antibacterial agents under standard laboratory conditions (37 °C, pH 7, laboratory light exposure). b, In vivo-like conditions with laboratory light exposure at pH 7 (nasal condition) or pH 5.5 (skin condition) and reduced temperatures; incubation of epifadin under exclusion from light enabled further purification and activity determination. Conditions at pH 7, 37 °C and 0 h were used as reference for 100% stability. Data shown represent the mean ± s.d. of three independent experiments. Source data
The effect of different incubation conditions on the bioactivity of epifadin was analysed by agar diffusion assays on lawns of the sensitive indicator strain S. aureus USA300 LAC. To this end, liquid TSA was inoculated with an overnight culture of USA300 at an OD600 of 0.00125. After solidification of the agar, a cork borer was used to punch wells into the agar with 5 mm diameter. TSB media with 50 mM sodium citrate (pH 5 and 6) or 50 mM tris(hydroxymethyl)aminomethane (pH 8 and 9) were prepared. Epifadin-containing precipitate was dissolved in DMSO (12 mg ml^−1), and insoluble particles were removed by centrifugation. The supernatant was added to the prepared TSB media at a final concentration of 750 µg precipitate per millilitre (37.5 µg in 50 µl). Media were incubated for 6 h at 21 °C, 30 °C or 37 °C with or without laboratory light exposure and constant shaking at 500 rpm in a thermomixer (Eppendorf). As controls, 70 µg ml^−1 (3.5 µg in 50 µl) lugdunin, 24 µg ml^−1 (1.2 µg in 50 µl) gallidermin and 100 µg ml^−1 (5 µg in 50 µl) nisin were used. At different timepoints, 50 µl of each sample was pipetted into the wells of the agar plates. After incubation at 37 °C overnight, zones of inhibition were analysed with ImageJ software (version 1.8.0_112).

In the case of `CN[C@H](CC(C)C)C(=O)N[C@H]1C(=O)N[C@@H](CC(N)=O)C(=O)N[C@H]2C(=O)N[C@H]3C(=O)N[C@H](C(=O)N[C@H](C(=O)O)c4cc(O)cc(O)c4-c4cc3ccc4O)[C@H](O)c3ccc(c(Cl)c3)Oc3cc2cc(c3O[C@@H]2O[C@H](CO)[C@@H](O)[C@H](O)[C@H]2O[C@H]2C[C@](C)(N)[C@H](O)[C@H](C)O2)Oc2ccc(cc2Cl)[C@H]1O` [Vancomycin], the “IC*” value with S. aureus USA300 JE2 was 3.7 µg/mL; with S. aureus USA300LAC, 6.0 µg/mL.
Regarding Nisin, the “stability (remaining antimicrobial activity, 0 h = 100%)” value is recorded as 97.92% in the series on S. aureus USA300 LAC (nisin 100 µg/ml in TSB, experiment 1 of 3, after 1 h incubation); 95.64% with S. aureus USA300 LAC (nisin 100 µg/ml in TSB, experiment 1 of 3, after 2 h incubation); 93.46% with S. aureus USA300 LAC (nisin 100 µg/ml in TSB, experiment 1 of 3, after 3 h incubation); 95.48% in the series with S. aureus USA300 LAC (nisin 100 µg/ml in TSB, experiment 1 of 3, after 4 h incubation); 97.51% with S. aureus USA300 LAC (nisin 100 µg/ml in TSB, experiment 1 of 3, after 5 h incubation); 85.14% in the series on S. aureus USA300 LAC (nisin 100 µg/ml in TSB, experiment 1 of 3, after 6 h incubation). Also, the “stability (remaining antimicrobial activity, 0 h = 100%)” value in the series with S. aureus USA300 LAC (nisin 100 µg/ml in TSB, experiment 2 of 3, after 1 h incubation) worked out at 104.00%; with S. aureus USA300 LAC (nisin 100 µg/ml in TSB, experiment 2 of 3, after 2 h incubation), 100.36%; in the series with S. aureus USA300 LAC (nisin 100 µg/ml in TSB, experiment 2 of 3, after 3 h incubation) it was 102.17%; in the series on S. aureus USA300 LAC (nisin 100 µg/ml in TSB, experiment 2 of 3, after 4 h incubation), 101.46%; in the series on S. aureus USA300 LAC (nisin 100 µg/ml in TSB, experiment 2 of 3, after 5 h incubation) it was 105.85%; with S. aureus USA300 LAC (nisin 100 µg/ml in TSB, experiment 2 of 3, after 6 h incubation) it was 97.13%. Besides, the “stability (remaining antimicrobial activity, 0 h = 100%)” value in the series on S. aureus USA300 LAC (nisin 100 µg/ml in TSB, experiment 3 of 3, after 1 h incubation) is given as 107.69%; in the series on S. aureus USA300 LAC (nisin 100 µg/ml in TSB, experiment 3 of 3, after 2 h incubation) it was 105.39%; in the series with S. aureus USA300 LAC (nisin 100 µg/ml in TSB, experiment 3 of 3, after 4 h incubation) it was 113.09%; in the series with S. aureus USA300 LAC (nisin 100 µg/ml in TSB, experiment 3 of 3, after 5 h incubation), 97.70%; in the series with S. aureus USA300 LAC (nisin 100 µg/ml in TSB, experiment 3 of 3, after 6 h incubation), 77.36%.
With Gallidermin, the “stability (remaining antimicrobial activity, 0 h = 100%)” value was determined as 98.31% with S. aureus USA300 LAC (gallidermin 24 µg/ml in TSB, experiment 1 of 3, after 1 h incubation); 98.34% in the series with S. aureus USA300 LAC (gallidermin 24 µg/ml in TSB, experiment 1 of 3, after 2 h incubation); 97.66% in the series on S. aureus USA300 LAC (gallidermin 24 µg/ml in TSB, experiment 1 of 3, after 3 h incubation); 104.98% in the series on S. aureus USA300 LAC (gallidermin 24 µg/ml in TSB, experiment 1 of 3, after 4 h incubation); 100.66% in the series on S. aureus USA300 LAC (gallidermin 24 µg/ml in TSB, experiment 1 of 3, after 5 h incubation); 98.44% in the series with S. aureus USA300 LAC (gallidermin 24 µg/ml in TSB, experiment 1 of 3, after 6 h incubation). Also, the “stability (remaining antimicrobial activity, 0 h = 100%)” value in the series with S. aureus USA300 LAC (gallidermin 24 µg/ml in TSB, experiment 2 of 3, after 1 h incubation) turned out to be 97.85%; with S. aureus USA300 LAC (gallidermin 24 µg/ml in TSB, experiment 2 of 3, after 2 h incubation) it was 106.35%; with S. aureus USA300 LAC (gallidermin 24 µg/ml in TSB, experiment 2 of 3, after 3 h incubation), 110.68%; in the series with S. aureus USA300 LAC (gallidermin 24 µg/ml in TSB, experiment 2 of 3, after 4 h incubation), 102.27%; in the series with S. aureus USA300 LAC (gallidermin 24 µg/ml in TSB, experiment 2 of 3, after 5 h incubation), 103.29%; in the series on S. aureus USA300 LAC (gallidermin 24 µg/ml in TSB, experiment 2 of 3, after 6 h incubation) it was 108.21%. For the same compound, the “stability (remaining antimicrobial activity, 0 h = 100%)” value with S. aureus USA300 LAC (gallidermin 24 µg/ml in TSB, experiment 3 of 3, after 1 h incubation) amounted to 100.01%; in the series on S. aureus USA300 LAC (gallidermin 24 µg/ml in TSB, experiment 3 of 3, after 2 h incubation), 96.91%; with S. aureus USA300 LAC (gallidermin 24 µg/ml in TSB, experiment 3 of 3, after 3 h incubation), 95.85%; in the series with S. aureus USA300 LAC (gallidermin 24 µg/ml in TSB, experiment 3 of 3, after 4 h incubation), 100.24%; in the series with S. aureus USA300 LAC (gallidermin 24 µg/ml in TSB, experiment 3 of 3, after 5 h incubation), 103.69%; in the series on S. aureus USA300 LAC (gallidermin 24 µg/ml in TSB, experiment 3 of 3, after 6 h incubation) it was 91.59%.
